Tests used:
Type in all cases: cell-based, mouse
[1] = system: MEFs; test: Direct reprogramming of MEFs into astrocytes, GFAP/S100β immunostaining; conditions: MEFs treated for 25 days, GFAP immunostaining
Method: Cell culture. MEFs and TTFs were derived from E13.5 embryos of Oct4-GFP transgenic (OG2) mice (Szabo et al., 2002), wild type or GFAP-GFP transgenic mice (Jackson Laboratory) (Zhuo et al., 1997). These cells were cultured in MEF medium containing DMEM, 10% FBS, 0.1 mM nonessential amino acids, and 2 mM L-glutamine. Mouse primary astrocytes were isolated from P1-2 pups following published protocol ([…] et al., 2013) and cultured in DMEM containing 10% FBS. Direct reprogramming mouse fibroblasts into astrocytes. MEFs were plated on 6-well or 12-well plates at a cell density of 3×10^3 cells/cm^2. Cells were cultured in MEF medium for 24 hr, then changed to mouse induced astrocyte medium (iAM) containing knock-out DMEM with 10% knock-out serum replacer, 10% FBS, 2 mM L-glutamine, 0.1 mM NEAA, 0.1 mM β-mercaptoethanol, and 100 ng/ml FGF. Cells were treated with compounds, including […] valproaic acid (VPA) (Stemgent), 3 μM CHIR99021(D&C chemicals), 10 μM SB-431542 (D&C chemicals), 10 μM Tranylcypromine (Stemgent), and 1 μM OAC1(Li et al., 2012) for 10 days, replated onto Matrigel-coated plates (BD Biosciences) and continued with compound treatment for another 15 days. Cells were then switched to mouse astrocyte medium (AM) containing DMEM with 10% heat-inactivated FBS. Immunocytochemistry. […]

[2] = system: MEF transduced with AxD GFAP-GFP; test: GFAP protein aggregates in MEF transduced with AxD mutant GFAP-GFP; conditions: ceftriaxone vs vehicle
Method: FIGS. 12A-12E illustrate recapitulating GFAP protein aggregates in VCSTO-induced astrocytes (iA) transfected with an AxD mutant GFAP. […] The transfected cells are indicated by GFP. Nuclei Dapi staining (blue) is included in the merged images. Scale bar, 10 μm. […] Scale bar, 10 μm. […] The percentage of iA that contained the GFAP-GFP aggregates was reduced upon ceftriaxone treatment. n=400 to 500 cells. […] MEF transduced with the AxD GFAP-GFP were treated with ceftriaxone (+Cef) or vehicle control (−Cef). The percentage of MEF that contain the GFAP-GFP aggregates remained the same in the absence or presence of ceftriaxone treatment. n=600 to 900 cells. […] Error bars are sd of the mean, **p<0.01 by Student's t-test.
AxD is a neurological disease with astrocyte dysfunction and is caused by genetic mutation of the GFAP gene (Messing et al., 2012). Expression of AxD mutant GFAP induces the expression of αB-crystallin, a small heat shock protein, and the formation of protein aggregates containing GFAP and αB-crystallin in astrocytes (Messing et al., 2012). The compound-induced astrocytes were tested to see if they could be used to model AxD. Plasmid expressing GFP fusion of the wild type (WT) or AxD mutant GFAP containing the R239C mutation, a hotspot mutation for AxD (Hagemann et al., 2006), were transfected into VCSTO-induced astrocytes. […]

[3] = system: induced astrocytes (iA) transfected with R239C AxD mutant GFAP-GFP; test: GFAP protein aggregates in induced astrocytes transfected with AxD mutant GFAP-GFP; conditions: 100 μM ceftriaxone for 48 hr vs vehicle
Method: Transfection into induced astrocytes. Induced astrocytes (iA) were seeded at 1×10^5 cells per well in 12-well plates and incubated overnight. Then 2 μg plasmid of human wild type (WT) GFAP-GFP or AxD mutant GFAP-GFP with the R239C mutation (Bachetti et al., 2008) was transfected into iA using Lipofectamine® 2000 (Invitrogen). Forty eight hr after transfection, cells were assayed by immunostaining. For drug treatment, 24 hr after transfection, cells were treated with vehicle control or 100 μM ceftriaxone for 48 hr, followed by immunostaining.
AxD is a neurological disease with astrocyte dysfunction and is caused by genetic mutation of the GFAP gene (Messing et al., 2012). Expression of AxD mutant GFAP induces the expression of αB-crystallin, a small heat shock protein, and the formation of protein aggregates containing GFAP and αB-crystallin in astrocytes (Messing et al., 2012). The compound-induced astrocytes were tested to see if they could be used to model AxD. Plasmid expressing GFP fusion of the wild type (WT) or AxD mutant GFAP containing the R239C mutation, a hotspot mutation for AxD (Hagemann et al., 2006), were transfected into VCSTO-induced astrocytes. […] VCSTO-induced astrocytes transfected with the AxD mutant GFAP were treated with ceftriaxone.

SMILES | induction of GFAP-positive cells from MEFs [1] | GFAP protein aggregates in MEF with AxD mutant GFAP [2] | GFAP protein aggregates in iA with AxD mutant GFAP [3]
Cc1cccc(-c2n[nH]cc2-c2ccc3ncccc3n2)n1 [Compound 6, 2-[5-(6-methylpyridin-2-yl)-1H-pyrazol-4-yl]-1,5-naphthyridine] | able to induce GFAP-positive cells | – | –
NC(=O)c1ccc(-c2nc(-c3ccc4c(c3)OCO4)c(-c3ccccn3)[nH]2)cc1 [S, 4-[4-(1,3-benzodioxol-5-yl)-5-pyridin-2-yl-1H-imidazol-2-yl]benzamide] | sufficient to induce GFAP-positive cells | – | –
CO/N=C(\C(=O)N[C@@H]1C(=O)N2C(C(=O)O)=C(CSc3nc(=O)c(=O)[nH]n3C)CS[C@H]12)c1csc(N)n1 [ceftriaxone] | – | not responsive | Substantial elimination of GFAP protein aggregates

Reference: US11413286B2, “Producing astrocytes using small molecules” (CITY OF HOPE, priority 2016, dated 2022)
